Laboratory results published in patent publication US5525626A (priority 1989, dated 1996).
pIC50: −log10 of the molar value.

Assays:
Assay in all cases: 3H-thymidine assay
Assay type in all cases: cell-based
CAKI-1 cells = conditions: Homo sapiens, CAKI-1
Protocol: (§1) The cell lines were cultivated as indicated in Example 1.
(§2) The antiproliferative effect of the 1,2-benzopyrone derivatives according to the invention on the tumor cell lines in each case was shown with the help of the ^3 H-thymidine insertion and with reference to growth curves.
(§3) In a 24-well-plate, in each case 10^4 cells of the line to be investigated were inoculated per well. Approximately 48 hours later the cells were half-confluent; the medium was then changed and replaced by a medium containing the active substance in question (cf Table 3). After a further 48 hours 0.25 μCi ^3 H-thymidine (Ammersham) was added to each well and the cells were incubated for a further 24 hours. Subsequently the cultures were washed twice with ice-cold PBS and the high-molecular-weight ^3 H-radioactivity was precipitated with 5% trichloroacetic acid for one hour at 4° C. After the washing of the cells in PBS the ^3 H-radioactivity was solubilized with 0.3M NaOH and measured in the counter. The growth-inhibition was determined by comparing the thymidine insertion of the cells treated with active substance with untreated cells.
(§4) The active substance concentration in each case was so chosen that ^3 H-thymidine insertion was 50% inhibited. The active substance concentrations used under this aspect for the active substances and cell lines in each case are given in table 4 below in μM/ml, […]

At T 20 = conditions: Mus musculus, AtT20
Protocol: as §1, §2, §3, §4

[1] = test system: Tp 483 MG glioblastoma cells
Daudi leukemic cells = conditions: Homo sapiens
[2] = test system: Z-R-75-1 breast cancer cells; conditions: Homo sapiens, ZR-75-1
[3] = 1 μM/ml, read-out: 3H-thymidine tracer (%) of control
[4] = 2 μM/ml, read-out: 3H-thymidine tracer (%) of control
[5] = 4 μM/ml, read-out: 3H-thymidine tracer (%) of control
[6] = 8 μM/ml, read-out: 3H-thymidine tracer (%) of control
[7] = 16 μM/ml, read-out: 3H-thymidine tracer (%) of control
[8] = 25 μM/ml, read-out: 3H-thymidine tracer (%) of control
[9] = 50 μM/ml, read-out: 3H-thymidine tracer (%) of control
[10] = 100 μM/ml, read-out: 3H-thymidine tracer (%) of control
[11] = 500 μM/ml, read-out: 3H-thymidine tracer (%) of control
[12] = Table 4, *: maximum usable dosage, no 50% inhibition, read-out: active substance concentration at which 3H-thymidine insertion was 50% inhibited
[13] = 250 μM/ml, read-out: 3H-thymidine tracer (%) of control
[14] = Table 4, read-out: active substance concentration at which 3H-thymidine insertion was 50% inhibited

O=c1ccc2ccc(O)cc2o1 [7-OH-1,2-BP, 7-hydroxy-1,2-benzopyrone]
activity at 1 µM (CAKI-1 cells; [3]): 100%
activity at 2 µM (CAKI-1 cells; [4]): 98%
activity at 4 µM (CAKI-1 cells; [5]): 90%
activity at 8 µM (CAKI-1 cells; [6]): 81%
activity at 16 µM (CAKI-1 cells; [7]): 76%
activity at 25 µM (CAKI-1 cells; [8]): 62%
activity at 50 µM (CAKI-1 cells; [9]): 57%
activity at 100 µM (CAKI-1 cells; [10]): 49%
activity at 150 µM (CAKI-1 cells; 150 μM/ml, read-out: 3H-thymidine tracer (%) of control): 44%
activity at 500 µM (CAKI-1 cells; [11]): 40%
pIC50 (CAKI-1 cells; [12]): 4.00
activity at 1 µM (At T 20; [3]): 98%
activity at 2 µM (At T 20; [4]): 89%
activity at 4 µM (At T 20; [5]): 85%
activity at 8 µM (At T 20; [6]): 78%
activity at 16 µM (At T 20; [7]): 65%
activity at 25 µM (At T 20; [8]): 60%
activity at 50 µM (At T 20; [9]): 62%
activity at 100 µM (At T 20; [10]): 44%
activity at 250 µM (At T 20; [13]): 38%
activity at 500 µM (At T 20; [11]): 31%
pIC50 (At T 20; [14]): 4.30
activity at 1 µM ([1]; 1 μM/ml, read-out: 3H-thymidine insertion (%) of control): 97%
activity at 2 µM ([1]; 2 μM/ml, read-out: 3H-thymidine insertion (%) of control): 95%
activity at 4 µM ([1]; 4 μM/ml, read-out: 3H-thymidine insertion (%) of control): 89%
activity at 8 µM ([1]; 8 μM/ml, read-out: 3H-thymidine insertion (%) of control): 81%
activity at 16 µM ([1]; 16 μM/ml, read-out: 3H-thymidine insertion (%) of control): 69%
activity at 25 µM ([1]; 25 μM/ml, read-out: 3H-thymidine insertion (%) of control): 66%
activity at 50 µM ([1]; 50 μM/ml, read-out: 3H-thymidine insertion (%) of control): 39%
activity at 100 µM ([1]; 100 μM/ml, read-out: 3H-thymidine insertion (%) of control): 32%
activity at 250 µM ([1]; 250 μM/ml, read-out: 3H-thymidine insertion (%) of control): 27%
activity at 500 µM ([1]; 500 μM/ml, read-out: 3H-thymidine insertion (%) of control): 25%
pIC50 [1, 14]: 4.60
activity at 1 µM (Daudi leukemic cells; [3]): 98%
activity at 2 µM (Daudi leukemic cells; [4]): 89%
activity at 4 µM (Daudi leukemic cells; [5]): 82%
activity at 8 µM (Daudi leukemic cells; [6]): 76%
activity at 16 µM (Daudi leukemic cells; [7]): 63%
activity at 25 µM (Daudi leukemic cells; [8]): 54%
activity at 50 µM (Daudi leukemic cells; [9]): 49%
activity at 100 µM (Daudi leukemic cells; [10]): 38%
activity at 250 µM (Daudi leukemic cells; [13]): 35%
activity at 500 µM (Daudi leukemic cells; [11]): 28%
pIC50 (Daudi leukemic cells; [14]): 4.30
activity at 1 µM [2, 3]: 96%
activity at 2 µM [2, 4]: 91%
activity at 4 µM [2, 5]: 82%
activity at 8 µM [2, 6]: 73%
activity at 16 µM [2, 7]: 65%
activity at 25 µM [2, 8]: 55%
activity at 50 µM [2, 9]: 49%
activity at 100 µM [2, 10]: 43%
activity at 250 µM [2, 13]: 39%
activity at 500 µM [2, 11]: 27%
pIC50 [2, 12]: 4.30
